Measured values as given in PMC6429055, “Synthesis, Photochemical and In Vitro Cytotoxic Evaluation of New Iodinated Aminosquaraines as Potential Sensitizers for Photodynamic Therapy” (Molecules, 2019).
Where two headings read alike, the source gives them in different places.

Columns and labels:
[1] = Singlet oxygen formation quantum yield (phosphorescence emission at ~1270 nm vs phenazine standard); assay type: physicochemical; conditions: In CHCl3, excitation 337 nm
Procedure: The evaluation of the photosensitizing efficiency of the aminosquaraine dyes was performed in chloroform, by determining the singlet oxygen formation quantum yields (ΦΔ). Phenazine was used as standard. The phosphorescence emission of singlet oxygen generated by the sensitizers at approximately 1270 nm is presented in Figure 2 and the determined quantum yields are summarized in Table 1.
These ΦΔ values were obtained by a simple comparison of the integrated areas determined for the standard and samples, using the same OD at the excitation wavelength. For each determination an average of 100 phosphorescence spectra were used. […] As previously reported, the amino group in the squaric ring enhances singlet oxygen generation efficiency when compared with the unsubstituted zwitterionic dye 3. […] This is related with the intramolecular charge transfer (ICT) mechanism which provides a non-radiative deactivation pathway, therefore decreasing the singlet oxygen formation quantum yields ([44] and references therein).
The singlet oxygen measurement set-up was assembled in our laboratory as previously described. As an excitation source we used a nitrogen laser, excitation wavelength = 337 nm. The detector was an InGaAs CCD (model i-Dus from Andor Technology Limited, Belfast, UK) working at low temperature (−60 °C) coupled to a fixed spectrograph, model Shamrock 163i, also from Andor. Phenazine (standard) was used at O.D. = 0.6 in chloroform. The ΦΔ values were obtained by comparing the total area of the emission spectra for the reference and for each dye under study in the same solvent, with the same optical density at the excitation wavelength. […].

[2] = test system: HepG2 (hepatocellular carcinoma); experiment: SRB cytotoxicity, dark and after irradiation (photodynamic treatment); assay type: cell-based; conditions: Homo sapiens, mean ± SD
Procedure: (§1) Stock solutions of the aminosquaraines 5a–e with different concentrations (0.0375 μM, 0.15 μM, 0.6 μM, 6 μM, 12 μM, 25 μM, 50 μM, 500 μM) were prepared using a solution of 3% DMSO in DMEM and kept at−20 °C. Prior to the in vitro assays diluted solutions were prepared with the same solvent to obtain solutions with final concentrations of 0.03 μM, 0.3 μM, 0.6 μM, 1.25 μM, 2.5 μM and 25 μM.
(§2) The cytotoxicity of the squaraine dyes was tested in the dark and under irradiation. For irradiation of the cells a halogen/tungsten lamp (24 V and 250 W, Osram, Carnaxide, Portugal) was used with a fluence rate of […] (measured with an ILT 1400-A radiometer equipped with a SEL033 detector, ILT, Peabody, MA, USA). The cells were irradiated continuously for 30 min. A 3% aqueous solution of K2Cr2O7 was placed between the lamp and the cells as a liquid cut off filter to remove light of wavelength shorter than ~500 nm. The temperature to which the cells were exposed was carefully monitored to guarantee cell viability.
(§3) Four human tumor cell lines were used: MCF-7 (breast adenocarcinoma), NCI-H460 (non-small cell lung carcinoma), HeLa (cervical carcinoma) and HepG2 (hepatocellular carcinoma) from DSMZ (Leibniz-Institut DSMZ-Deutsche Sammlung von Mikroorganismen und Zellkulturen GmbH, Mönchengladbach, Germany). Cells were routinely maintained as adherent cell cultures in RPMI-1640 medium containing 10% heat-inactivated FBS and 2 mM glutamine at […], in a humidified air incubator containing 5% CO2. Each cell line was plated at an appropriate density (7.5 × 10^3 cells/well for MCF-7 and NCI-H460, and 1.0 × 10^4 cells/well for HeLa and HepG2) in 96-well plates, allowed to attach for 24 h and then treated with different concentrations of each squaraine dye. Controls were set with the cells in the absence of the dyes in 3% DMSO in DMEM and in the growth medium only. After the incubation step (24 h), the cells were submitted to the photodynamic treatment for 30 min. Controls in the absence of light were performed on every test. Neither DMSO alone, nor light alone, nor the combination of both induced toxicity on the cells. Then, the growth medium was changed and the cells were incubated for further 24 h. Following this incubation period, the adherent cells were fixed by adding cold 10% TCA (100 µL) and incubated for 60 min at 4 °C. Plates were then washed with deionized water and subsequently dried. SRB solution (0.1% in 1% acetic acid, 100 µL) was then added to each plate well and incubated for 30 min at room temperature. Unbound SRB was removed by washing with 1% acetic acid. Plates were air dried, the bound SRB was solubilized with 10 mM Tris (200 µL) and the absorbance was measured at 540 nm in an ELX800 Microplate Reader (Bio-Tek Instruments Inc., Winooski, VT, USA). The results were expressed in GI50 values, which correspond to the concentration of dye that causes 50% inhibition of cell growth. All the assays were performed in duplicate. Ellipticine was used as standard.

[3] = test system: MCF-7 (breast adenocarcinoma); experiment: as above; assay type: cell-based; conditions: Homo sapiens, mean ± SD
Procedure: as §1, §2, §3

[4] = test system: NCI-H460 (non-small cell lung carcinoma); experiment: as above; assay type: cell-based; conditions: Homo sapiens, mean ± SD
Procedure: as §1, §2, §3

[5] = test system: HeLa (cervical carcinoma); experiment: as above; assay type: cell-based; conditions: Homo sapiens, mean ± SD
Procedure: as §1, §2, §3

[6] = test system: HeLa, HepG2, MCF-7 and NCI-H460 cell lines; experiment: SRB growth inhibition across the human tumor cell line panel, dark vs irradiation (text summaries); assay type: cell-based; conditions: for GI50: Homo sapiens; for Difference between growth inhibition percentages upon illumination and in the dark: dye 0.3 μM, range over the cell lines
Procedure: In this representative example, the growth inhibition in the dark was less than 20% in more than 75% of the assays.
as §1, §2, §3

[7] = SRB cytotoxicity in non-tumor porcine liver primary cell culture, dark and after irradiation; assay type: cell-based; conditions: pig, PLP2 porcine liver primary cell culture (non-tumor), non-tumor cells, mean ± SD
Procedure: as §1, §2
A cell culture was prepared from a freshly harvested porcine liver obtained from a local slaughter house, and it was designed as PLP2. Briefly, the liver tissues were rinsed in Hank’s balanced salt solution containing 100 U/mL penicillin and 100 µg/mL streptomycin and divided into 1×1 mm^3 explants to ensure that all liver cells were able to access the nutrients provided by the medium. Some of these explants were placed in 25 cm^2 tissue flasks in DMEM medium supplemented with 10% fetal bovine serum, 2 mM non-essential amino acids and 100 U/mL penicillin, […] streptomycin and incubated at 37 °C with a humidified atmosphere containing 5% CO2. The medium was changed every two days. Cultivation of the cells was continued with direct monitoring every two or three days using a phase contrast microscope. Before confluence was reached, cells were subcultured and plated in 96-well plates at a density of 1.0 × 10^4 cells/well, and cultivated in DMEM medium with 10% FBS, 100 U/mL penicillin and 100 µg/mL streptomycin [47]. The PLP2 cells were incubated with the squaraine dyes and submitted to the two independent processes—dark and irradiation—as described earlier for the human tumor cell lines. The SRB assay was performed according to the procedure previously described. The results were expressed in GI50 values. All the assays were performed in duplicate. Ellipticine was used as standard.

[8] = Fluorescence quantum yield; assay type: physicochemical; conditions: In CHCl3
Text: As expected, due to the covalent link between iodine and the aminosquaraine, a strong heavy atom effect can be observed in all cases. This effect is emphasized in the case of the bis(hydroxyethyl)amino substituent group (dye 5c).

[9] = HepG2, light or radiation study, 0.5 h, Irradiated 30 min, halogen/tungsten lamp >500 nm
[10] = MCF7, light or radiation study, 0.5 h, Irradiated 30 min, halogen/tungsten lamp >500 nm
[11] = NCI-H460, light or radiation study, 0.5 h, Irradiated 30 min, halogen/tungsten lamp >500 nm
[12] = light or radiation study, 0.5 h, Irradiated 30 min, halogen/tungsten lamp >500 nm
[13] = light or radiation study, irradiated, range over cell lines, stated jointly for 5a and 5b, read-out: GI50 upon illumination, range over all the cell lines tested

Row | SMILES | Φ∆ (singlet oxygen generation quantum yield) [1] | GI50 [2, 9] [µM] | GI50 ([2]; HepG2, Dark) [µM] | GI50 [3, 10] [µM] | GI50 ([3]; MCF7, Dark) [µM] | GI50 [4, 11] [µM] | GI50 ([4]; NCI-H460, Dark) [µM] | GI50 ([5]; Dark) [µM] | GI50 [5, 12] [µM] | GI50 [6, 13] [µM] | Difference between growth inhibition percentages upon illumination and in the dark [6] | melting point [°C] | GI50 ([7]; Dark) [µM] | GI50 ([7]; Irradiated 30 min) [µM] | ΦF (fluorescence quantum yield) [8] | GI50 ([6]; HeLa, dark, inactive within the range of concentrations used, read-out: GI50 in the dark, all cell lines with exception of HeLa) [µM]
1 | CCN1C(=CC2=C(N)C(=Cc3sc4cc(I)ccc4[n+]3CC)C2=O)Sc2cc(I)ccc21.[I-] [Dye 5a, 2-[2-Amino-3-(3-ethyl-6-iodo-3H-benzothiazol-2-ylidenemethyl)-4-oxocyclobut-2-enylidenemethyl]-3-ethyl-6-iodobenzothiazol-3-ium iodide] | 0.22 | 0.08 ± 0.001 | 20 ± 2 | 0.01 ± 0.001 | 15 ± 1 | 0.19 ± 0.02 | 15.3 ± 0.8 | 2.54 ± 0.02 | 0.004 ± 0.0001 | 0.004 to 0.19 | 46–68% | > 300 | 17.5 ± 0.1 | 2 ± 0.1 | 0.02 | 
2 | CCN1C(=CC2=C(NC)C(=Cc3sc4cc(I)ccc4[n+]3CC)C2=O)Sc2cc(I)ccc21.[I-] [Dye 5b, 3-Ethyl-2-[3-(3-ethyl-6-iodo-3H-benzothiazol-2-ylidenemethyl)-2-(methylamino)-4-oxocyclobut-2-enylidenemethyl]-6-iodobenzothiazol-3-ium iodide] | 0.26 | 0.06 ± 0.001 | 15 ± 2 | 0.01 ± 0.001 | 10 ± 0.7 | 0.18 ± 0.07 | 8.1 ± 0.9 | 1.2 ± 0.1 | 0.011 ± 0.01 | 0.004 to 0.19 | 43–73% | > 300 | 5.7 ± 0.6 | 0.03 ± 0.001 | 0.03 | 
3 | CCN1C(=CC2=C(N(CCO)CCO)C(=Cc3sc4cc(I)ccc4[n+]3CC)C2=O)Sc2cc(I)ccc21.[I-] [Dye 5c, 3-Ethyl-2-{3-(3-ethyl-6-iodo-3H-benzothiazol-2-ylidenemethyl)-2-[bis(2-hydroxy-ethyl)amino]-4-oxocyclobut-2-enylidenemethyl}-6-iodobenzothiazol-3-ium iodide] | 0.09 | 0.26 ± 0.03 | 23 ± 2 | 0.42 ± 0.06 | > 25 | 0.98 ± 0.04 | 23 ± 2 | 2 ± 0.1 | 0.31 ± 0.03 |  |  | > 300 | 22 ± 0.9 | 0.44 ± 0.01 | 0.01 | 
4 | CCN1C(=CC2=C(N(C)CCO)C(=Cc3sc4cc(I)ccc4[n+]3CC)C2=O)Sc2cc(I)ccc21.[I-] [Dye 5e, 3-Ethyl-2-{3-(3-ethyl-6-iodo-3H-benzothiazol-2-ylidenemethyl)-2-[(2-hydroxy-ethyl)methylamino]-4-oxocyclobut-2-enylidenemethyl}-6-iodobenzothiazol-3-ium iodide] | 0.16 | 0.19 ± 0.01 | 11.4 ± 0.9 | 0.23 ± 0.02 | 9.6 ± 0.2 | 0.24 ± 0.03 | 13 ± 1 | 2.1 ± 0.2 | 0.19 ± 0.02 |  |  | > 300 | 11.9 ± 0.2 | 0.42 ± 0.01 | 0.09 | 
5 | CCN1C(=CC2=C([O-])C(=Cc3sc4cc(I)ccc4[n+]3CC)C2=O)Sc2cc(I)ccc21 [Dye 3, 4-[(3-Ethyl-6-iodobenzothiazol-3-ium-2-yl)methylidene]-2-[(3-ethyl-6-iodo-3H-benzothiazol-2-ylidene)methyl]-3-oxocyclobut-1-en-1-olate] | 0.05 |  |  |  |  |  |  |  |  |  |  | > 300 |  |  | 0.03 | 
6 | CCN1C(=CC2=C(NCCO)C(=Cc3sc4cc(I)ccc4[n+]3CC)C2=O)Sc2cc(I)ccc21.[I-] [Dye 5d, 3-Ethyl-2-{3-(3-ethyl-6-iodo-3H-benzothiazol-2-ylidenemethyl)-2-[(2-hydroxy-ethyl)amino]-4-oxocyclobut-2-enylidenemethyl}-6-iodobenzothiazol-3-ium iodide] | 0.19 | 0.38 ± 0.03 | > 25 | 0.25 ± 0.04 | > 25 | 0.89 ± 0.01 | > 25 | 1.8 ± 0.1 | 0.19 ± 0.01 |  |  | > 300 | > 25 | 0.98 ± 0.02 | 0.11 | > 25
